Experimental data reported in patent publication US20040259806A1 (priority 2001, published 2004).

How the values were obtained:
M. bovis 8 = format: in vivo, mice
spleen cells = test: Spleen cell proliferation (Con A, LPS, tuberculin) from treated infected mice; format: in vivo; conditions: after 24 days; Group 3 the isoniazid control group
Experimental: Spleens from mice were harvested aseptically, homogenized in RPMI-1640 medium (Biolot, Russia) and filtered through two layers of sterile gauze. Erythrocytes were lysed in 0.83% percent ammonium chloride solution after centrifugation of the homogenate. Spleen cells were washed twice with RPMI-1640 with 2 mM L-glutamine and […] gentamycin (Sigma, St. Louis, Mo.), then counted using a Goriaev hemocytometer.
Spleen cells and thymic cells were isolated as described above. In vitro, thymic cells were diluted to 10^7/ml in RPMI-1640 with 2 mM L-glutamine, 80 ìg/ml gentamycin and 4% heat-inactivated fetal calf serum (Sigma, St. Louis, Mo.). Spleen cells were diluted to 3×10^6/ml in RPMI-1640 with 2 mM L-glutamine, 80 ìg/ml gentamycin and 20% inactivated fetal calf serum. 0.5 ìg/ml Concanavalin A (Con A, Sigma, St. Louis, Mo.) was used to stimulate thymic cell proliferation. For spleen cell proliferation, 0.5 ìg/ml Con A, 10 ìg/ml lipopolysaccharide (Sigma, St. Louis, Mo.), and 50 ìg/ml tuberculin purified protein derivative (PPD) were utilized. The assay was carried out in 96-well plates and cell cultures were incubated for 72 hours, or 96 hours if tuberculin was used, at 37° C. in humidified 5% CO2, then pulsed with 5 ìl Ci/ml ^3H-thymidine overnight (approximately 16 h) and harvested on filters using a semi-automated harvester (Titertek™, Flow Laboratories, Norway). Filters were dried and proliferation calculated by ^3H-thymidine incorporation by counting samples in a liquid scintillation counter (LKB 1217 Racketa, Wallace, Sweden). Data was expressed in impulses per minute.

peritoneal macrophages = test: Phagocytosis and killing of Saccharomyces cerevisiae by peritoneal macrophages of treated infected mice; format: in vivo
Experimental: In order to study phagocytosis, peritoneal macrophages were plated at a concentration of 10^6 cells per Petri dish and media including 10^7 Saccharomyces cerevisiae cells, opsonized by mice serum was added. Results were evaluated using the Mann-Whitney test. Phagocytic activity was calculated after determination of percentage of macrophages involved in phagocytes. The phagocytic index was determined by calculating the average number of yeast phagocytosed per one cell. Killing activity was resolved by the number of yeast digested by macrophages after 1.5 h of incubation. Finally, the killing index was determined as follows: [formula]

IL-2 = IL-2 production by Con A stimulated spleen cells (CTLL-2 assay); format: in vivo, mice; conditions: 4 days after therapy; Group 7 (0.1 ìg/kg ip) compared to Group 3 (isoniazid control); Con A stimulated spleen cells
Experimental: In RPMI-1640, spleen cells were diluted to a concentration of 10^7/ml with 10% fetal calf serum, 2 mM L-glutamine and 80 ìg/ml gentamycin. A 100 ìl cell suspension was added to each well of a 96-well culture plate and cytokine production was induced by Con A at a final concentration of 2.5 ìg/ml. A control well included RPMI-1640. For 24 hours, cells were incubated at 37° C. and humidified in 5% CO2. Following incubation, […] of supernatant was removed from each well and stored at −70° C.
In order to determine the IL-2 concentration in cell culture supernatants, the CTLL-2 IL-2 dependent cell line was used. CTLL-IL-2 cells were washed twice in RPMI-1640 and counted with a Goriaev hemocytometer. Supernatants were diluted in 96-well culture plates at dilutions of 1:5, 1:15, 1:45 and 1:135 in a volume of 100 il. IL-2 standard dilutions were also prepared. Cells were diluted to 2×10^5/ml in RPMI-1640 with 10% inactivated fetal calf serum, 2 mM L-glutamine, 80 ìg/ml gentamycin. The 100 ìl suspension was added to each well of the culture plate and incubated for 48 h at 37° C. in 5% CO2 humidity. Ten ìl of 5 i Ci/ml ^3H-thymidine was added to each well 16 h before the end of incubation. Following incubation, the cells were harvested on filters through the use of a semi-automated harvester and samples were counted in a liquid scintillation counter.

[1] = 24 days after end of therapy, Group 7 (0.1 ìg/kg ip) versus Group 3 (isoniazid control)

NNC(=O)c1ccncc1 [isoniazid, isonicotinic acid hydrazide, reference compound]
growth of M bovis cultured from spleens (M. bovis 8; [1]): 275±14.1 CFU | lung weight index (M. bovis 8; [1]): 1.07±0.23 | spleen weight index (M. bovis 8; [1]): 1.94±0.31 | increase in body weight (M. bovis 8; 24 days after end of therapy, Group 7 (SCV-07 0.1 ìg/kg ip, 5 injections, with isoniazid) versus Group 3 (isoniazid control)): 20.7% | lung damage index, difference to untreated mice (Group 2) (M. bovis 8; isoniazid alone (Group 3), 10 mg/kg subcutaneous, Day 28 of infection): no significant difference | spleen cell proliferative response (Con A and LPS) (spleen cells): remained low | phagocytic killing (peritoneal macrophages; 24 days after treatment, Group 3 (isoniazid), 178.0 in uninfected mice, p=0.05): 62.0 U | Phagocytosis (peritoneal macrophages; 24 days after treatment, isoniazid treatment group): returned to the level seen in uninfected mice | phagocytic activity (peritoneal macrophages; after 4 days, Group 7 (SCV-07 0.1 ìg/kg ip) compared to Group 3 (isoniazid control), p≦0.05, 64.2% in uninfected mice): 19.4% | killing (peritoneal macrophages; after 4 days, SCV-07 versus control, p≦0.05): 196.4 | phagocytic activity (peritoneal macrophages; after 17 days, Group 6 (1.0 ìg/kg ip, 10 injections) versus Group 3 (isoniazid control)): 49.8% | phagocytic index (peritoneal macrophages; after 17 days, Group 6 (1.0 ìg/kg ip, 10 injections) versus Group 3, p=0.05): 4.91 U | IL-2 production (IL-2): 16.6±2.6 U/ml
